How the values were obtained:
Format in all cases: functional
[1] = test system: SF-268; assay: Growth inhibition of human SF268 cells after 48 hrs by sulforhodamine B assay; details: SF-268, 48 h
[2] = test system: MCF7; assay: Growth inhibition of human MCF7 cells after 48 hrs by sulforhodamine B assay; details: MCF7, 48 h
[3] = test system: Leishmania donovani; assay: Antileishmanial activity against Leishmania donovani axenic amastigotes infected in human THP1 cells assessed as growth inhibition at 50 uM; details: THP-1, read-out: GI
[4] = test system: NCI-H460; assay: Growth inhibition of human NCI-H460 cells after 48 hrs by sulforhodamine B assay; details: NCI-H460, 48 h
[5] = test system: THP-1; assay: Growth inhibition of human THP1 cells after 48 hrs by sulforhodamine B assay; details: THP-1, 48 h

Compound | GI50 [1] | GI50 [2] | inhibition of growth at 50 µM [3] | GI50 [4] | GI50 [5]
N#CCC(=O)N/N=C(/CBr)c1ccc(Br)cc1 | 12.8 µM | 40.6 µM | 20% | 10 µM | –
N#CCC(=O)N/N=C(/CBr)c1ccc([N+](=O)[O-])cc1 | 14 µM | 18.4 µM | 35% | 10.3 µM | –
N#CCC1=NN=C(c2ccc(Br)cc2)CO1 | 10.3 µM | 1.5 µM | 26% | 0.9 µM | –
N#CCC1=NN=C(c2ccc([N+](=O)[O-])cc2)CO1 | 1.8 µM | 0.001 µM | 44% | 0.002 µM | –
N#CCC1=NN=C(c2ccc(Br)cc2)C(Br)O1 (stereo not given) | 32 µM | 70.7 µM | 40% | 38.2 µM | –
N#CCC1=NN=C(c2ccc([N+](=O)[O-])cc2)C(Br)O1 (stereo not given) | 6.7 µM | 10.6 µM | 58% | 8.5 µM | 22 µM
N#CCC1=NN=C(c2ccc(Br)cc2)C(CC(=O)c2ccc(Br)cc2)O1 (stereo not given) | 16.9 µM | 30.4 µM | 48% | 22.1 µM | –
N#CCC1=NN=C(c2ccc(Br)cc2)C(CC(=O)c2ccc([N+](=O)[O-])cc2)O1 (stereo not given) | 18.5 µM | 32 µM | 60% | 23 µM | 20 µM
N#CCC1=NN=C(c2ccc([N+](=O)[O-])cc2)C(CC(=O)c2ccc(Br)cc2)O1 (stereo not given) | 16.5 µM | 36 µM | 73% | 40 µM | –
N#CCC1=NN=C(c2ccc([N+](=O)[O-])cc2)C(CC(=O)c2ccc([N+](=O)[O-])cc2)O1 (stereo not given) | 2 µM | 1.6 µM | 88% | 2.6 µM | 33 µM
N#CCC1=C(C#N)CC(c2ccc(Br)cc2)=C(CC(=O)c2ccc(Br)cc2)O1 | 8.2 µM | 12 µM | 60% | 10.4 µM | –
N#CCC1=C(C#N)CC(c2ccc(Br)cc2)=C(CC(=O)c2ccc([N+](=O)[O-])cc2)O1 | 0.003 µM | 0.09 µM | 90% | 0.01 µM | 12.9 µM
N#CCC1=C(C#N)CC(c2ccc([N+](=O)[O-])cc2)=C(CC(=O)c2ccc(Br)cc2)O1 | 2.8 µM | 4.9 µM | 82% | 3.6 µM | 26 µM
N#CCC1=C(C#N)CC(c2ccc([N+](=O)[O-])cc2)=C(CC(=O)c2ccc([N+](=O)[O-])cc2)O1 | 0.005 µM | 0.03 µM | 98% | 0.08 µM | 10.2 µM
C[C@@H]1[C@H](O)[C@@H](C)/C=C/C=C/C=C/C=C/C=C/C=C/C=C/[C@H](O[C@@H]2O[C@H](C)[C@@H](O)[C@H](N)[C@@H]2O)C[C@@H]2O[C@](O)(C[C@@H](O)C[C@@H](O)[C@H](O)CC[C@@H](O)C[C@@H](O)CC(=O)O[C@H]1C)C[C@H](O)[C@H]2C(=O)O [AMPHOTERICIN B] | – | – | 95% | – | –
COc1cccc2c1C(=O)c1c(O)c3c(c(O)c1C2=O)C[C@@](O)(C(=O)CO)C[C@@H]3O[C@H]1C[C@H](N)[C@H](O)[C@H](C)O1 [DOXORUBICIN] | 0.094 µM | – | – | 0.094 µM | –

From ChEMBL document CHEMBL1764977, “Anti-tumor and anti-leishmanial evaluations of 1,3,4-oxadiazine, pyran derivatives derived from cross-coupling reactions of β-bromo-6H-1,3,4-oxadiazine derivatives” (2011)
